The values below come from patent publication US20250388571A1, “AMP-ACTIVATED PROTEIN KINASE MODULATOR COMPOUNDS AND USES THEREOF” (Biolexis Therapeutics, Inc., priority 2024, published 2025).

One assay concerns the target AMPK (A2/B1/G3) (Homo sapiens, UniProt P54646+Q9UGI9+Q9Y478). Kind of assay: AMPK kinase binding activity in activation mode (AC50). It is filed as biochemical.
The next assay has as its target AMPK (A2/B2/G3) (Homo sapiens, UniProt O43741+P54646+Q9UGI9). The description is as above. It is filed as biochemical. The source says: In Vitro AMPK Kinase Inhibition Experiments
Assay [1] deals with human skeletal muscle cells (HSKM cells). Kind of assay: Glucose uptake assay, human skeletal muscle cells. Type of assay: cell-based. Conditions: 100 μM to 0.005 μM, 1 hour. Here is the method:
FIGS. 1-4 show results for cells treated with differing doses of representative compounds of Structure (I) (i.e., compound I-11 in FIG. 1 and compound I-7 in FIG. 2) as well reference compounds (i.e., PF-06409577 in FIG. 3 and MK-8722 in FIG. 4). […] Cells were starved for 3 hours in high glucose DMEM without FBS, then treated with indicated compounds in DMEM without FBS/glucose for 1 hour, and glucose uptake was detected using an uptake glucose kit (Promega). The bars show (from left to right) concentrations of 100 μM, 33 μM, 11 μM, 3.7 μM, 1.23 μM, 0.41 μM, 0.14 μM, 0.045 μM, 0.015 μM, 0.005 μM, 0 μM, and insulin.
(§1) Human skeletal myoblasts were obtained (Thermofisher; BYU) and cultured in DMEM/F12 medium with 10% FBS. For differentiation, 2% horse serum low glucose DMEM medium was employed for 72 hours. Human cardiomyocytes cells (HCM cells; Promocell) were cultured in myocyte growth medium (Promocell). Human preadipocyte HWP-c cells (Promocell) were obtained from upper arm of diabetic II donor. Human preadipocyte HWP-c cells (Promocell) were obtained from abdomen of diabetic II donor. For differentiating human preadipocytes, cells were cultured in preadipocyte growth medium to total confluency stage. The growth medium was replaced with preadipocyte differentiation medium for 72 hours, then changed to PromoCell adipocyte nutrition medium to complete the differentiation process. THLE-2 cells were cultured in BEGM from Lonza/Clonetics Corporation, Walkersville, MD 21793 (BEGM Bullet Kit; CC3170). HepG2, L6 and C2Cl2 cells were cultured in EMEM medium.
(§2) After differentiation myoblasts, preadipocyte cells were starved by removing the medium and adding 100 μL DMEM without serum. The medium was then replaced with 100 μL DMEM±1 μM insulin at indicated concentration of representative compounds without serum or glucose. The cells were then incubated for 1 hour at 37° C. in 5% CO2. The cells were then removed from the medium and 50 μL of 0.1 mM 2DG in PBS was added. Cells were incubated for 30 minutes at 25° C. 25 μL of Stop Buffer was added and samples were mixed. 25 μL of Neutralization Buffer was then added and mixed. 100 μL of 2DG6P Detection Reagent was then added and mixed. Samples were then incubated for 1 hour at 25° C. Luminescence was then recorded with 0.3-1 second integration on a luminometer.

The subject of assay [2] is human cardiomyocyte cells (HCM). Kind of assay: Glucose uptake assay, human cardiomyocyte cells. Type of assay: cell-based. The settings on record: for AMPK activation activity (glucose uptake assay): 10 doses 100 μM to 0.005 μM. Here is the method: FIGS. 17-19 show results for glucose update assays in human cardiomyocyte cells (“HCM”-healthy donor) (Promocell, cat. no. C-12810) when treated with compound I-11 (FIG. 17), compound I-7 (FIG. 18), and PF-06409577 (FIG. 19). After recovered HCM cells for 4 days, cells were starved for 3 hours in high glucose DMEM without FBS, treated with the components noted above in DMEM without FBS/glucose for 1 hour, and glucose uptake was detected using a glucose uptake kit (Promega). […] The bars show (from left to right) concentrations of 100 μM, 33 μM, 11 μM, 3.7 μM, 1.23 μM, 0.41 μM, 0.14 μM, 0.045 μM, 0.015 μM, 0.005 μM, 0 μM, and insulin.
FIGS. 20-22 show results for glucose update assays in human cardiomyocyte cells (“HCM”-diabetic donor) (Promocell, cat. no. C-12810) when treated with compound I-11 (FIG. 20), compound I-7 (FIG. 21), and PF-06409577 (FIG. 22). After recovered HCM cells for 4 days, cells were starved for 3 hours in high glucose DMEM without FBS, treated with the components noted above in DMEM without FBS/glucose for 1 hour, and glucose uptake was detected using a glucose uptake kit (Promega). […] The bars show (from left to right) concentrations of 100 μM, 33 μM, 11 μM, 3.7 μM, 1.23 μM, 0.41 μM, 0.14 μM, 0.045 μM, 0.015 μM, 0.005 μM, 0 μM, and insulin.
as §1, §2

A further assay has as its target AMPK (A2/B1/G1) (Homo sapiens, UniProt P54619+P54646+Q9Y478). Kind of assay: AMPK kinase binding activity in activation mode (AC50). It is filed as biochemical.

Chain of AMPK (A2/B1/G3) (P54646 whole entry): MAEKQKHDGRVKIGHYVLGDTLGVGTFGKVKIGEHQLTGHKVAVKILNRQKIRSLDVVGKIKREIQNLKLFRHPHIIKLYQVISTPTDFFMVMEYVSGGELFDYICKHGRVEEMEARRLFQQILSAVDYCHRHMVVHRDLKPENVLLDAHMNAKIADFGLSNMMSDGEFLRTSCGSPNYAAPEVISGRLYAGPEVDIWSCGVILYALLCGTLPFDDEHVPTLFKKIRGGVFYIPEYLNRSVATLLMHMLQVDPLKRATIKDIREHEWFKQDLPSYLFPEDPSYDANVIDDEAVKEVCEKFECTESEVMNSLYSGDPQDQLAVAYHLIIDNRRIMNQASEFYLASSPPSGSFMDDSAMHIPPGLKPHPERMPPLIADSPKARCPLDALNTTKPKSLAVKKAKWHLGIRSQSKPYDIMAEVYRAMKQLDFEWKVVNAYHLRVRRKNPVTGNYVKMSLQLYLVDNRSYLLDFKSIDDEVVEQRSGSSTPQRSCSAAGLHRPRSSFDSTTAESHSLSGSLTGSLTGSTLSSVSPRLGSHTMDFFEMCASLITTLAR
Chain of AMPK (A2/B1/G3) (Q9Y478 whole entry): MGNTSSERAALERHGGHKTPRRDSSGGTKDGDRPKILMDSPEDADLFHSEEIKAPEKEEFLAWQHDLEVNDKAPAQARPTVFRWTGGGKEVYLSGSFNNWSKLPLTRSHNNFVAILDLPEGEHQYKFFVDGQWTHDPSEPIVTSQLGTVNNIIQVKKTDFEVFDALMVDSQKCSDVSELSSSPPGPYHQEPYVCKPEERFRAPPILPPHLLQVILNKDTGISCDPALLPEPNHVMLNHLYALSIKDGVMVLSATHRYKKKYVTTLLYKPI
Chain of AMPK (A2/B1/G3) (Q9UGI9 whole entry): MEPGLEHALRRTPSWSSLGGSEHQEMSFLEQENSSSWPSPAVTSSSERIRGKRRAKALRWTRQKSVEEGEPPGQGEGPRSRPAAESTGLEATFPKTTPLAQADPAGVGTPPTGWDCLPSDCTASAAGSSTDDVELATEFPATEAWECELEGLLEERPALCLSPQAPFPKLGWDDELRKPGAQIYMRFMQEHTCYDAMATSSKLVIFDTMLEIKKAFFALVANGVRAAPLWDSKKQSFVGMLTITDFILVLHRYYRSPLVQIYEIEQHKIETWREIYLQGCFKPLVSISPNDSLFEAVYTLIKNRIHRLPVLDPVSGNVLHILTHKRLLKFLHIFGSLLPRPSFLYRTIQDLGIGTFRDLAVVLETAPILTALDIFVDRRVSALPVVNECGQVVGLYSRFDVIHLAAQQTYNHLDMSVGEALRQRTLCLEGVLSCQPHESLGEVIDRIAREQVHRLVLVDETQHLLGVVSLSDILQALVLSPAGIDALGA
Chain of AMPK (A2/B2/G3) (P54646 whole entry): as the sequence (P54646 whole entry) above
Chain of AMPK (A2/B2/G3) (O43741 whole entry): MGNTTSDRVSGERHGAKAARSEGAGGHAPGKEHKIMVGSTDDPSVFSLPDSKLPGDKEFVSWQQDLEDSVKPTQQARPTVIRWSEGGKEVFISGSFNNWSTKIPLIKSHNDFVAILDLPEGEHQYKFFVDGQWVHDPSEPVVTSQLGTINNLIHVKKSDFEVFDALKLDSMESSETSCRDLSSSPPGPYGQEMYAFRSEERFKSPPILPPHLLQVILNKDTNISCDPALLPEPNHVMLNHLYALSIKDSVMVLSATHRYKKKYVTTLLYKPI
Chain of AMPK (A2/B2/G3) (Q9UGI9 whole entry): as the sequence (Q9UGI9 whole entry) above
Chain of AMPK (A2/B1/G1) (P54646 whole entry): as the sequence (P54646 whole entry) above
Chain of AMPK (A2/B1/G1) (Q9Y478 whole entry): as the sequence (Q9Y478 whole entry) above
Chain of AMPK (A2/B1/G1) (P54619 whole entry): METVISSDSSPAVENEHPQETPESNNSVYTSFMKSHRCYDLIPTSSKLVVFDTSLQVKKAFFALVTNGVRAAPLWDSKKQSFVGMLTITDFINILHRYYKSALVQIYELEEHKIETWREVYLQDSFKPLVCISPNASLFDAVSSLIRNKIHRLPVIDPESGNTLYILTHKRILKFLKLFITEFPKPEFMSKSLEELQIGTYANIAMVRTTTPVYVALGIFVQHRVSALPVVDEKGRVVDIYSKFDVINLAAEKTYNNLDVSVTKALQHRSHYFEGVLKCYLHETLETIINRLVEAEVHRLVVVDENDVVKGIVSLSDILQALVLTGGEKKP

Regarding `O=c1[nH]c(-c2c[nH]c3ncc(-c4ccc(C5(O)CCC5)cc4)cc23)no1` [Compound I-9, 3-(5-(4-(1-hydroxycyclobutyl)phenyl)-1H-pyrrolo[2,3-b]pyridin-3-yl)-1,2,4-oxadiazol-5(4H)-one], the concentration at half-maximal activity (AC50) (usually the midpoint of the concentration-response curve, whichever way the signal moves) at AMPK (A2/B1/G3) lay in the range of 10 to 500 nM. Regarding `O=P(O)(O)CSc1c[nH]c2cc(F)c(-c3ccc(N4CC[C@H](O)C4)cc3)c(F)c12` [Compound I-25, (S)-(((4,6-difluoro-5-(4-(3-hydroxypyrrolidin-1-yl)phenyl)-1H-indol-3-yl)thio)methyl)phosphonic acid], the AC50 on AMPK (A2/B1/G3) is 10 to 500 nM; at AMPK (A2/B2/G3), 500 to 5000 nM.

As for `O=P(O)(O)CSc1c[nH]c2ccc(-c3ccc(C4(O)CCC4)cc3)cc12` [Compound I-48, (((5-(4-(1-hydroxycyclobutyl)phenyl)-1H-indol-3-yl)thio)methyl)phosphonic acid], the AC50 on AMPK (A2/B1/G3) was 10 to 500 nM; at AMPK (A2/B2/G3), 500 to 5000 nM. With “1-(6-chloro-5-(4-(1- hydroxycyclobutyl) phenyl)- 1H-indol-3-yl)-4-methyl-4,5- dihydro-3H-1l6,2,5- thiadiazol-3-one 1-oxide (racemic) [Compound I-2, 1-(6-chloro-5-(4-(1-hydroxycyclobutyl)phenyl)-1H-indol-3-yl)-4-methyl-4,5-dihydro-3H-1l6,2,5-thiadiazol-3-one 1-oxide (racemic)]”, the AC50 on AMPK (A2/B1/G3) fell in the range of 10 to 500 nM.

As to `Cc1ccc(N2CC(=O)NS2(=O)=O)cc1Oc1nc2cc(-c3ccc(C4(O)CCC4)cc3)c(F)cc2[nH]1` [II-22, 5-(3-((6-fluoro-5-(4-(1-hydroxycyclobutyl)phenyl)-1H-benzo[d]imidazol-2-yl)oxy)-4-methylphenyl)-1,2,5-thiadiazolidin-3-one 1,1-dioxide], the AC50 at AMPK (A2/B1/G3) and at AMPK (A2/B2/G3) was 10 to 500 nM in each case. On to `O=P(O)(O)CSc1c[nH]c2cc(F)c(-c3ccc(C4(O)CCC4)cc3)cc12` [Compound I-47, (((6-fluoro-5-(4-(1-hydroxycyclobutyl)phenyl)-1H-indol-3-yl)thio)methyl)phosphonic acid], for which the values for the half-maximal activity concentration (AC50) at AMPK (A2/B1/G3) and at AMPK (A2/B2/G3) were 10 to 500 nM and 500 to 5000 nM, respectively.

`OB1OCc2ccc(-c3c[nH]c4cc(Cl)c(-c5ccc(C6(O)CCC6)cc5)cc34)cc21` [Compound I-75, 6-(6-chloro-5-(4-(1-hydroxycyclobutyl)phenyl)-1H-indol-3-yl)benzo[c][1,2]oxaborol-1(3H)-ol]: the concentration at half-maximal activity (AC50) on AMPK (A2/B1/G3) and at AMPK (A2/B2/G3) was 500 to 5000 nM throughout. `C[C@H]1NS(=O)(c2c[nH]c3cc(Cl)c(-c4ccc(C5(O)CCC5)cc4)cc23)=NC1=O` (stereo partly drawn) [Compound I-4, (4R)-1-(6-chloro-5-(4-(1-hydroxycyclobutyl)phenyl)-1H-indol-3-yl)-4-methyl-4,5-dihydro-3H-1l6,2,5-thiadiazol-3-one 1-oxide] displayed a half-maximal activity concentration (AC50) on AMPK (A2/B1/G3) of 10 to 500 nM. Take `O=C1CN(c2c[nH]c3cc(Cl)c(-c4ccc(C5(O)CCC5)cc4)cc23)S(=O)(=O)N1` [Compound I-76, 5-(6-chloro-5-(4-(1-hydroxycyclobutyl)phenyl)-1H-indol-3-yl)-1,2,5-thiadiazolidin-3-one 1,1-dioxide]: the AC50 on AMPK (A2/B1/G3) is no more than 10 nM; on AMPK (A2/B2/G3), 500 to 5000 nM. Turning to `Cc1ccc(N2CC(=O)NS2(=O)=O)cc1Oc1nc2nc(-c3ccc(C4(O)CCC4)cc3)c(Cl)cc2[nH]1` [II-21, 5-(3-((6-chloro-5-(4-(1-hydroxycyclobutyl)phenyl)-1H-imidazo[4,5-b]pyridin-2-yl)oxy)-4-methylphenyl)-1,2,5-thiadiazolidin-3-one 1,1-dioxide], the results for the AC50 at AMPK (A2/B1/G3) and at AMPK (A2/B2/G3) were no more than 10 nM and 5000 to 7500 nM, respectively. In turn, `O=c1[nH]c(-c2c[nH]c3cc(F)c(-c4ccc(C5(O)CCC5)cc4)nc23)no1` [Compound I-44, 3-(6-fluoro-5-(4-(1-hydroxycyclobutyl)phenyl)-1H-pyrrolo[3,2-b]pyridin-3-yl)-1,2,4-oxadiazol-5(4H)-one] showed an AC50 on AMPK (A2/B1/G3) of 500 to 5000 nM. Regarding `O=P(O)(O)CSc1c[nH]c2cc(F)c(N3CC[C@H](O)C3)c(F)c12` [Compound I-26, (S)-(((4,6-difluoro-5-(3-hydroxypyrrolidin-1-yl)-1H-indol-3-yl)thio)methyl) phosphonic acid], the AC50 on AMPK (A2/B1/G3) lay within 10 to 500 nM; at AMPK (A2/B2/G3), 500 to 5000 nM. The like results for `O=P(O)(O)CSc1c[nH]c2cc(F)c(-c3ccc(N4CC[C@H](O)C4)cc3)cc12` [Compound I-24, (S)-(((6-fluoro-5-(4-(3-hydroxypyrrolidin-1-yl)phenyl)-1H-indol-3-yl)thio)methyl)phosphonic acid] were, in that order, 10 to 500 nM and 500 to 5000 nM. For `Cc1ccc(N2CC(=O)NS2(=O)=O)cc1Oc1nc2cc(-c3ccc(C4(O)CCC4)cc3)c(Cl)cc2[nH]1` [II-23, 5-(3-((6-chloro-5-(4-(1-hydroxycyclobutyl)phenyl)-1H-benzo[d]imidazol-2-yl)oxy)-4-methylphenyl)-1,2,5-thiadiazolidin-3-one 1,1-dioxide] the same measures were 10 to 500 nM and 10 to 500 nM. The like results for `O=P(O)(O)CSc1c[nH]c2cc(F)c(-c3ccc(C4(O)CCC4)cc3)c(F)c12` [Compound I-46, (((4,6-difluoro-5-(4-(1-hydroxycyclobutyl)phenyl)-1H-indol-3-yl)thio)methyl)phosphonic acid] were, in that order, 10 to 500 nM and 500 to 5000 nM.

`O=C(O)c1c[nH]c2cc(Cl)c(-c3ccc(C4CCCO4)cc3)cc12` (centres unmarked) [PF-06409577, reference compound]: the “dose dependence of glucose uptake (printed: activation of insulin / AMPK activation)” value in assay [1] was “highly variable”. Also, the “AMPK activation activity (glucose uptake assay)” value in assay [2] (diabetic donor) and in assay [2] (healthy donor) was “significant variability” throughout. The glucose uptake entry in assay [2] (donor not stated) is given as “did not induce glucose uptake in dose-dependent manner”. `C[C@@H]1NS(=O)(c2c[nH]c3cc(Cl)c(-c4ccc(C5(O)CCC5)cc4)cc23)=NC1=O` (stereo partly drawn) [Compound I-3, (4S)-1-(6-chloro-5-(4-(1-hydroxycyclobutyl)phenyl)-1H-indol-3-yl)-4-methyl-4,5-dihydro-3H-1l6,2,5-thiadiazol-3-one 1-oxide] displayed a half-maximal activity concentration (AC50) on AMPK (A2/B1/G3) of 10 to 500 nM. On to `O=c1[nH]c(-c2c[nH]c3cc(F)c(-c4ccc(C5(O)COC5)cc4)nc23)no1` [Compound I-45, 3-(6-fluoro-5-(4-(3-hydroxyoxetan-3-yl)phenyl)-1H-pyrrolo[3,2-b]pyridin-3-yl)-1,2,4-oxadiazol-5(4H)-one], for which the half-maximal activity concentration (AC50) at AMPK (A2/B1/G3) lay in the range of 5000 to 7500 nM. Take `Cc1cc2c(cc1Oc1nc3nc(-c4ccc(C5(O)CCC5)cc4)c(Cl)cc3[nH]1)B(O)OC2` [II-26, 6-((6-chloro-5-(4-(1-hydroxycyclobutyl)phenyl)-1H-imidazo[4,5-b]pyridin-2-yl)oxy)-5-methylbenzo[c][1,2]oxaborol-1(3H)-ol]: the AC50 at AMPK (A2/B1/G3) is no more than 10 nM; at AMPK (A2/B2/G3), 10 to 500 nM. With `O=c1[nH]c(-c2c[nH]c3cc(F)c(-c4ccc(C5(O)COC5)nc4)cc23)no1` [Compound I-18, 3-(6-fluoro-5-(6-(3-hydroxyoxetan-3-yl)pyridin-3-yl)-1H-indol-3-yl)-1,2,4-oxadiazol-5(4H)-one], at AMPK (A2/B1/G1), the AC50 fell in the range of 7500 to 20000 nM.
